Test system: β2AR
Assay: β2AR-HaloTag/Nluc conformational biosensor (negative control) in HEK293A cells
Assay type: cell-based, human
Settings: β2AR-HaloTag/Nluc as negative control; HEK293A stable
Protocol: Initially, all 93 molecules were tested for activity at the GPR3 biosensor at a concentration of 1 μM (Figure a). […] Of the five compounds that emerged from the virtual screen, three–hereafter referred to as virtual hit 1–3, VH1/2/3–were selected for in-house chemical synthesis (compounds 52, 93, and 115; cf. Scheme , Figure S6), providing compounds of ≥99% purity for hit validation (NMR spectra: Figures S7–S142; HPLC purity: Figures S143–S218). For VH1, the racemic mix, rac-VH1/52, was synthesized and used for testing. Compounds 52, VH2/93, and VH3/115 (Figure S6) were then validated with the GPR3 biosensor including β2AR-HaloTag/Nluc as a negative control.
BRET-based GPCR conformational sensor experiments
Cells expressing the conformational GPCR biosensors were grown for 24 h (stable cells) or 48 h (transiently transfected cells) in white 96-well plates and washed with 100 µl of HBSS. After washing, cells were incubated for 2 minutes with a 1/1000 solution of the furimazine stock solution (Promega; cat. no. N1662). Three baseline BRET reads were recorded and averaged prior to the addition of serial dilutions of ligands or veh icle control and subsequent BRET reads. All experiments were con-ducted at 37 °C. BRE T donor emission was quantified with a 470/80 nm monochromator. BRET acceptor emission was quan-tified using a 660/100 nm monochromator. Experiments were carried out using a CLARIOstar plate reader. […]
FRET and BRET ratios were defined as acceptor emission/donor emission. […] To quantify ligand-induced changes ΔFRET and ΔBRET were calculated for each well as a percent over basal ([(Ratiostim − Ratiobasal)/Ratiobasal] × 100). […]
Data from FRET/BRET experiments were fitted using a three-parameter fit. Z-factors expressing the high-throughput suita-bility were calculated with the following equation: […]
Commercially available chemicals and solvents were purchased from standard commercial suppliers (Merck (Darmstadt, Ger-many), Sigma-Aldrich (Munich, Germany), Acros Organics (Geel, Belgium), Alfa Aesar (Karlsruhe, Germany), abcr (Karlsruhe, Germany), BLD Pharmatech (Reinbek, Germany) or TCI Europe (Zwijndrecht, Belgium) and were used as received. Deuter-ated solvents for nuclear magnetic resonance (1H NMR and 13C NMR) spectra were purchased from Deutero GmbH (Kastel-laun, Germany). All reactions carried out with dry solvents were accomplished in dry flasks under nitrogen or argon atmos-phere. For the preparation of buffers, HPLC eluents, and stock solutions millipore water was used. […] The reactions were monitored by thin layer chromatography (TLC) on Merck silica gel 60 F254 aluminium sheets and spots were visualized under UV light at 254 nm, by potassium permanganate or ninhydrin staining. […]

Row | SMILES | specificity of conformational response for GPR3 vs β2AR-HaloTag/Nluc
1 | N=c1n(Cc2ccccc2)c2ccccc2n1CC1CC1 [compound 33] | selectivity for GPR3 over β2AR
2 | N=c1n(Cc2ccccc2)c2ccccc2n1CC(O)COc1ccc(Cl)cc1 (stereo not drawn) [compound 52] | concentration-dependent and GPR3-specific conformational changes
3 | Cc1ccc(NC(=O)CN2CCN(C(=O)CCc3ccc(Cl)cc3)CC2)cc1 [compound 115] | concentration-dependent and GPR3-specific conformational changes

Source: publication PMC13195669, “GPR3 Ligands Discovered through Combined Virtual and Conformational Biosensor-Based Screening” (Journal of the American Chemical Society, 2026)
